Laboratory results published in ChEMBL document CHEMBL3885881, “DrugMatrix”.

Species on record: Rattus norvegicus
Experiment: DrugMatrix - Regimen: Daily Repeat
Format: toxicity, organism-based, Sprague-Dawley
Design: regimen Daily Repeat, gender Male, age 6-8 weeks
Details: in vivo, po, route oral GAVAGE, […]; for ABSOLUTE BASOPHIL / ABSOLUTE EOSINOPHIL / ABSOLUTE LYMPHOCYTE / ABSOLUTE MONOCYTE / ABSOLUTE SEGMENTED NEUTROPHIL / BASOPHIL / EOSINOPHIL / ERYTHROCYTE COUNT / HEMATOCRIT / HEMOGLOBIN / LEUKOCYTE COUNT / LYMPHOCYTE / MEAN CORPUSCULAR HEMOGLOBIN / MEAN CORPUSCULAR HEMOGLOBIN CONCENTRATION / MEAN CORPUSCULAR VOLUME / MONOCYTE / NEUTROPHIL / NUCLEATED RED BLOOD CELLS / PLATELET COUNT: tissue Blood; for ALANINE AMINOTRANSFERASE / ALBUMIN / ALKALINE PHOSPHATASE / ASPARTATE AMINOTRANSFERASE / BLOOD UREA NITROGEN / CARBON DIOXIDE / CHLORIDE / CHOLESTEROL / CREATINE PHOSPHOKINASE / CREATININE / GLUCOSE / LACTATE DEHYDROGENASE / LIPASE / PHOSPHORUS / POTASSIUM / SODIUM / TOTAL BILIRUBIN / TOTAL PROTEIN / URIC ACID: tissue Plasma
[1] = 0 mg/kg, 72 h, dose level Control, time 3 day
[2] = 0 mg/kg, 120 h, dose level Control, time 5 day
[3] = 50 mg/kg, 72 h, dose level Low, time 3 day

`Oc1ncnc2[nH]ncc12` [ALLOPURINOL] was tested, and the “ABSOLUTE BASOPHIL” value [1] was 0 CELLS/uL, the “ABSOLUTE EOSINOPHIL” value [1] was 0 CELLS/uL and the “ABSOLUTE LYMPHOCYTE” value [1] was 14687.67 CELLS/uL. For the same compound, the “ABSOLUTE MONOCYTE” value [1] was 164 CELLS/uL, the “ABSOLUTE SEGMENTED NEUTROPHIL” value [1] was 1748.33 CELLS/uL and the BASOPHIL [1] was 0%. For the same compound, the EOSINOPHIL [1] was 0%, the “ERYTHROCYTE COUNT” value [1] was 5.51 x10E6/uL and the HEMATOCRIT [1] was 33.68%. For the same compound, the HEMOGLOBIN [1] was 13.4 G/DL, the “LEUKOCYTE COUNT” value [1] was 16.6 x10E3/uL and the LYMPHOCYTE [1] was 88.83%. The “MEAN CORPUSCULAR HEMOGLOBIN” value [1] was 24.47 pg, the “MEAN CORPUSCULAR HEMOGLOBIN CONCENTRATION” value [1] was 39.82 G/DL and the “MEAN CORPUSCULAR VOLUME” value [1] was 61.23 fL. For the same compound, the MONOCYTE [1] was 0.83%, the NEUTROPHIL [1] was 10.33% and the “NUCLEATED RED BLOOD CELLS” value [1] was 0 /100WBC. For the same compound, the “PLATELET COUNT” value [1] was 1329.67 x10E3/uL, the “ALANINE AMINOTRANSFERASE” value [1] was 61.33 u/L and the ALBUMIN [1] was 4.18 G/DL. For the same compound, the “ALKALINE PHOSPHATASE” value [1] was 332.5 u/L, the “ASPARTATE AMINOTRANSFERASE” value [1] was 98.33 u/L and the “BLOOD UREA NITROGEN” value [1] was 15.83 mg/dL. The “CARBON DIOXIDE” value [1] was 27.83 mmol/L, the CHLORIDE [1] was 100 MEQ/L and the CHOLESTEROL [1] was 76.17 mg/dL. The “CREATINE PHOSPHOKINASE” value [1] was 729.17 u/L, the CREATININE [1] was 0.21 mg/dL and the GLUCOSE [1] was 151.83 mg/dL. For the same compound, the “LACTATE DEHYDROGENASE” value [1] was 484.67 u/L, the LIPASE [1] was 10 u/L and the PHOSPHORUS [1] was 11.3 mg/dL. The POTASSIUM [1] was 6.1 MEQ/L, the SODIUM [1] was 142.9 MEQ/L and the “TOTAL BILIRUBIN” value [1] was 0.23 mg/dL. For the same compound, the “TOTAL PROTEIN” value [1] was 5.68 G/DL, the “URIC ACID” value [1] was 1.75 mg/dL and the “ABSOLUTE BASOPHIL” value [2] was 0 CELLS/uL. For the same compound, the “ABSOLUTE EOSINOPHIL” value [2] was 58.67 CELLS/uL, the “ABSOLUTE LYMPHOCYTE” value [2] was 15950.83 CELLS/uL and the “ABSOLUTE MONOCYTE” value [2] was 172.5 CELLS/uL. For the same compound, the “ABSOLUTE SEGMENTED NEUTROPHIL” value [2] was 2551.33 CELLS/uL, the BASOPHIL [2] was 0% and the EOSINOPHIL [2] was 0.33%. The “ERYTHROCYTE COUNT” value [2] was 5.5 x10E6/uL, the HEMATOCRIT [2] was 34.05% and the HEMOGLOBIN [2] was 13.42 G/DL. For the same compound, the “LEUKOCYTE COUNT” value [2] was 18.73 x10E3/uL, the LYMPHOCYTE [2] was 84.5% and the “MEAN CORPUSCULAR HEMOGLOBIN” value [2] was 24.42 pg. The “MEAN CORPUSCULAR HEMOGLOBIN CONCENTRATION” value [2] was 39.42 G/DL, the “MEAN CORPUSCULAR VOLUME” value [2] was 61.97 fL and the MONOCYTE [2] was 1%. For the same compound, the NEUTROPHIL [2] was 14.17%, the “NUCLEATED RED BLOOD CELLS” value [2] was 0.33 /100WBC and the “PLATELET COUNT” value [2] was 1143.17 x10E3/uL. For the same compound, the “ALANINE AMINOTRANSFERASE” value [2] was 57 u/L, the ALBUMIN [2] was 4.17 G/DL and the “ALKALINE PHOSPHATASE” value [2] was 347.33 u/L. The “ASPARTATE AMINOTRANSFERASE” value [2] was 93.67 u/L, the “BLOOD UREA NITROGEN” value [2] was 15.67 mg/dL and the “CARBON DIOXIDE” value [2] was 27.17 mmol/L. The CHLORIDE [2] was 104.33 MEQ/L, the CHOLESTEROL [2] was 69.5 mg/dL and the “CREATINE PHOSPHOKINASE” value [2] was 317.17 u/L. For the same compound, the CREATININE [2] was 0.2 mg/dL, the GLUCOSE [2] was 162.33 mg/dL and the “LACTATE DEHYDROGENASE” value [2] was 408.67 u/L. For the same compound, the LIPASE [2] was 10.17 u/L, the PHOSPHORUS [2] was 11.08 mg/dL and the POTASSIUM [2] was 6.36 MEQ/L. The SODIUM [2] was 146.07 MEQ/L, the “TOTAL BILIRUBIN” value [2] was 0.22 mg/dL and the “TOTAL PROTEIN” value [2] was 5.92 G/DL. The “URIC ACID” value [2] was 1.47 mg/dL, the “ABSOLUTE BASOPHIL” value [3] was 0 CELLS/uL and the “ABSOLUTE EOSINOPHIL” value [3] was 127 CELLS/uL. For the same compound, the “ABSOLUTE LYMPHOCYTE” value [3] was 14701 CELLS/uL, the “ABSOLUTE MONOCYTE” value [3] was 340.67 CELLS/uL and the “ABSOLUTE SEGMENTED NEUTROPHIL” value [3] was 1864.67 CELLS/uL. The BASOPHIL [3] was 0%, the EOSINOPHIL [3] was 1% and the “ERYTHROCYTE COUNT” value [3] was 5.8 x10E6/uL. For the same compound, the HEMATOCRIT [3] was 35.57%, the HEMOGLOBIN [3] was 14.13 G/DL and the “LEUKOCYTE COUNT” value [3] was 17.03 x10E3/uL. The LYMPHOCYTE [3] was 86.33%, the “MEAN CORPUSCULAR HEMOGLOBIN” value [3] was 24.4 pg and the “MEAN CORPUSCULAR HEMOGLOBIN CONCENTRATION” value [3] was 39.77 G/DL. The “MEAN CORPUSCULAR VOLUME” value [3] was 61.43 fL, the MONOCYTE [3] was 2% and the NEUTROPHIL [3] was 10.67%. The “NUCLEATED RED BLOOD CELLS” value [3] was 0 /100WBC, the “PLATELET COUNT” value [3] was 1335 x10E3/uL and the “ALANINE AMINOTRANSFERASE” value [3] was 47.67 u/L. The ALBUMIN [3] was 3.9 G/DL, the “ALKALINE PHOSPHATASE” value [3] was 391.33 u/L and the “ASPARTATE AMINOTRANSFERASE” value [3] was 101 u/L. The “BLOOD UREA NITROGEN” value [3] was 54.33 mg/dL, the “CARBON DIOXIDE” value [3] was 31.33 mmol/L and the CHLORIDE [3] was 101.67 MEQ/L. For the same compound, the CHOLESTEROL [3] was 88.33 mg/dL, the “CREATINE PHOSPHOKINASE” value [3] was 732.33 u/L and the CREATININE [3] was 1.13 mg/dL. For the same compound, the GLUCOSE [3] was 142 mg/dL, the “LACTATE DEHYDROGENASE” value [3] was 354.67 u/L and the LIPASE [3] was 10 u/L. For the same compound, the PHOSPHORUS [3] was 10.1 mg/dL, the POTASSIUM [3] was 6.99 MEQ/L and the SODIUM [3] was 146.8 MEQ/L. For the same compound, the “TOTAL BILIRUBIN” value [3] was 0.2 mg/dL, the “TOTAL PROTEIN” value [3] was 5.93 G/DL and the “URIC ACID” value [3] was 0.2 mg/dL.
